Experimental data taken from paper PMC11859928, “Design, Synthesis, and Antiproliferative Activity of Novel Indole/1,2,4-Triazole Hybrids as Tubulin Polymerization Inhibitors” (Pharmaceuticals, 2025).

Experiments:
Type in all cases: cell-based, human
SNB-75 = experiment: NCI five-dose assay; details: SNB-75, CNS cancer
SF-539 = experiment: NCI five-dose assay; details: SF-539, CNS cancer
OVCAR-8 = experiment: NCI five-dose assay; details: OVCAR-8, Ovarian cancer
SN12C = experiment: NCI five-dose assay; details: Renal cancer
CAKI-1 = experiment: NCI five-dose assay; details: CAKI-1, Renal cancer
CCRF-CEM = experiment: NCI five-dose assay; details: Leukemia
PC-3 = experiment: NCI five-dose assay; details: PC-3, Prostate cancer
KM12 = experiment: NCI five-dose assay; details: KM12, Colon cancer
M14 = experiment: NCI five-dose assay; details: M14, Melanoma
786-0 = experiment: NCI five-dose assay; details: 786-0, Renal cancer
OVCAR-3 = experiment: NCI five-dose assay; details: Homo sapiens, OVCAR-3, Ovarian cancer
A498 = experiment: NCI five-dose assay; details: A498, Renal cancer
SW-620 = experiment: NCI five-dose assay; details: SW-620, Colon cancer
OVCAR-4 = experiment: NCI five-dose assay; details: OVCAR-4, Ovarian cancer
Prostate cancer subpanel = experiment: NCI five-dose assay, subpanel mean
MDA-MB-435 = experiment: NCI five-dose assay; details: MDA-MB-435, Melanoma
Colon cancer subpanel = experiment: NCI five-dose assay, subpanel mean
UO-31 = experiment: NCI five-dose assay; details: UO-31, Renal cancer
HT29 = experiment: NCI five-dose assay; details: HT29, Colon cancer
NCI/ADR-RES = experiment: NCI five-dose assay; details: Ovarian cancer
ACHN = experiment: NCI five-dose assay; details: Renal cancer
HOP-62 = experiment: NCI five-dose assay; details: HOP-62, Non-small cell lung cancer
SNB-19 = experiment: NCI five-dose assay; details: SNB-19, CNS cancer
RXF393 = experiment: NCI five-dose assay; details: RXF393, Renal cancer
EKVX = experiment: NCI five-dose assay; details: Non-small cell lung cancer
NCI-H460 = experiment: NCI five-dose assay; details: NCI-H460, Non-small cell lung cancer
DU-145 = experiment: NCI five-dose assay; details: DU-145, Prostate cancer
[1] = Homo sapiens, 48 h, read-out: LC50 (the source's name)
[2] = Homo sapiens, read-out: GI50 Conc. per Cell Lines

With `Cc1ccc(/C(CSc2nnc(-c3c[nH]c4ccccc34)n2-c2ccccc2)=N/O)cc1` [Compound 7h, (Z)-2-((5-(1H-Indol-3-yl)-4-phenyl-4H-1,2,4-triazol-3-yl)thio)-1-(p-tolyl)ethanone Oxime] the CC50 (SNB-75; [1]) was 5.48 µM, the GI50 (SNB-75; [2]) was 1.4 µM and the “TGI Conc. per Cell Lines” value (SNB-75) was 2.77 µM. For the same compound, the CC50 (SF-539; [1]) was 9.43 µM, the GI50 (SF-539; [2]) was 2.06 µM and the “TGI Conc. per Cell Lines” value (SF-539) was 4.41 µM. For the same compound, the GI50 (OVCAR-8; [2]) was 2.19 µM, the “TGI Conc. per Cell Lines” value (OVCAR-8) was 4.89 µM and the CC50 (SN12C; [1]) was 36.7 µM. The GI50 (SN12C; [2]) was 2.33 µM, the “TGI Conc. per Cell Lines” value (SN12C) was 6.80 µM and the “TGI Conc. per Cell Lines” value (CAKI-1) was 3.06 µM. For the same compound, the LC50 (CAKI-1; Homo sapiens, 48 h) was 5.74 µM, the GI50 (CAKI-1; [2]) was 1.63 µM and the CC50 (CCRF-CEM; [1]) was greater than 100 µM. For the same compound, the GI50 (CCRF-CEM; [2]) was 2.14 µM, the “TGI Conc. per Cell Lines” value (CCRF-CEM) was 4.98 µM and the GI50 (PC-3; [2]) was 1.77 µM. For the same compound, the “TGI Conc. per Cell Lines” value (PC-3) was 3.74 µM, the CC50 (KM12; [1]) was greater than 100 µM and the GI50 (KM12; [2]) was 8.64 µM. The “TGI Conc. per Cell Lines” value (KM12) was greater than 100 µM, the GI50 (M14; [2]) was 1.79 µM and the “TGI Conc. per Cell Lines” value (M14) was 3.86 µM. For the same compound, the “TGI Conc. per Cell Lines” value (786-0) was 31.40 µM, the LC50 (50% lethal concentration) (786-0; Homo sapiens, 48 h) was 98.1 µM and the GI50 (786-0; [2]) was 10 µM. The LC50 (OVCAR-3; 48 h) was greater than 100 µM, the GI50 (OVCAR-3; read-out: GI50 Conc. per Cell Lines) was 4.26 µM and the “TGI Conc. per Cell Lines” value (A498) was 89.10 µM. For the same compound, the LC50 (A498; Homo sapiens, 48 h) was greater than 100 µM, the GI50 (A498; [2]) was 24.1 µM and the CC50 (SW-620; [1]) was 7.04 µM. For the same compound, the GI50 (SW-620; [2]) was 1.79 µM, the “TGI Conc. per Cell Lines” value (SW-620) was 3.55 µM and the LC50 (OVCAR-4; Homo sapiens, 48 h) was 7.04 µM. For the same compound, the GI50 (OVCAR-4; [2]) was 1.75 µM, the “TGI Conc. per Cell Lines” value (OVCAR-4) was 3.51 µM and the GI50 (Prostate cancer subpanel; Homo sapiens, average sensitivity of all cell lines of the Prostate cancer subpanel, read-out: GI50 Subpanel MID b) was 1.85 µM. For the same compound, the “GI50 Selectivity Ratio (MID a/MID b)” value (Prostate cancer subpanel; Prostate cancer subpanel) was 1.61, the CC50 (MDA-MB-435; [1]) was 5.72 µM and the GI50 (MDA-MB-435; [2]) was 1.63 µM. For the same compound, the “TGI Conc. per Cell Lines” value (MDA-MB-435) was 3.05 µM, the “GI50 Selectivity Ratio (MID a/MID b)” value (Colon cancer subpanel; Colon cancer subpanel) was 0.959 and the GI50 (Colon cancer subpanel; Homo sapiens, average sensitivity of all cell lines of the Colon cancer subpanel, read-out: GI50 Subpanel MID b) was 3.13 µM. The CC50 (UO-31; [1]) was 9.47 µM, the GI50 (UO-31; [2]) was 1.82 µM and the “TGI Conc. per Cell Lines” value (UO-31) was 4.15 µM. For the same compound, the “TGI Conc. per Cell Lines” value (HT29) was 4.43 µM, the GI50 (HT29; Homo sapiens, HT-29, read-out: GI50 Conc. per Cell Lines) was 1.99 µM and the LC50 (NCI/ADR-RES; Homo sapiens, 48 h) was 7.59 µM. For the same compound, the GI50 (NCI/ADR-RES; [2]) was 2 µM, the “TGI Conc. per Cell Lines” value (NCI/ADR-RES) was 3.90 µM and the LC50 (ACHN; Homo sapiens, 48 h) was 6.26 µM. The GI50 (ACHN; [2]) was 1.79 µM, the “TGI Conc. per Cell Lines” value (ACHN) was 3.35 µM and the “TGI Conc. per Cell Lines” value (HOP-62) was 3.42 µM. For the same compound, the CC50 (HOP-62; [1]) was 6.93 µM, the GI50 (HOP-62; [2]) was 1.69 µM and the CC50 (SNB-19; [1]) was 8.46 µM. For the same compound, the GI50 (SNB-19; [2]) was 1.87 µM, the “TGI Conc. per Cell Lines” value (SNB-19) was 3.97 µM and the LC50 (concentration killing 50% of cells) (RXF393; Homo sapiens, RXF 393, 48 h) was 7.65 µM. For the same compound, the GI50 (RXF393; Homo sapiens, RXF 393, read-out: GI50 Conc. per Cell Lines) was 1.85 µM, the “TGI Conc. per Cell Lines” value (RXF393) was 3.76 µM and the CC50 (EKVX; [1]) was greater than 100 µM. The GI50 (EKVX; [2]) was 2.15 µM, the “TGI Conc. per Cell Lines” value (EKVX) was 5.58 µM and the CC50 (NCI-H460; [1]) was 6.55 µM. For the same compound, the GI50 (NCI-H460; [2]) was 3.18 µM, the “TGI Conc. per Cell Lines” value (NCI-H460) was 12.20 µM and the “TGI Conc. per Cell Lines” value (DU-145) was 4.01 µM. For the same compound, the GI50 (DU-145; [2]) was 1.94 µM.
